# T1: Curled (NOCT ortholog), full-length, Curled 1-419 (Drosophila melanogaster, UniProt A8JQX3)
# T1 construct: gene cu; full length 1-419 of splicing form H; E. coli, pGEX-6P, GST tag removed with Prescission protease
# T1 sequence (A8JQX3 224-642): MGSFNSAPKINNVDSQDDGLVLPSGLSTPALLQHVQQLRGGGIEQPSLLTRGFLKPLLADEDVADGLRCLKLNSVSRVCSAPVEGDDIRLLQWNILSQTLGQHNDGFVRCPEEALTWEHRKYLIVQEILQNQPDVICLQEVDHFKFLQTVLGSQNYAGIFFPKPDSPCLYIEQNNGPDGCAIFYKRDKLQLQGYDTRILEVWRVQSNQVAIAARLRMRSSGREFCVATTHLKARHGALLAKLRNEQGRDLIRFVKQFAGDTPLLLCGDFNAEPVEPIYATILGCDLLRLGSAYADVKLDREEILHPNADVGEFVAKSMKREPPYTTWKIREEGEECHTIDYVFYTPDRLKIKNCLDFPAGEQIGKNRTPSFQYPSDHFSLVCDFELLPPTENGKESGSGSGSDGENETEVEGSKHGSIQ
# T2: NOCT (122-431), catalytic domain of human NOCT (Homo sapiens, UniProt Q9UK39)
# T2 construct: catalytic domain, residues 122-431; E. coli BL21 (DE3)-CodonPlus RIPL, pGEX-6P, GST tag removed with Prescission protease
# T2 sequence (Q9UK39 122-431): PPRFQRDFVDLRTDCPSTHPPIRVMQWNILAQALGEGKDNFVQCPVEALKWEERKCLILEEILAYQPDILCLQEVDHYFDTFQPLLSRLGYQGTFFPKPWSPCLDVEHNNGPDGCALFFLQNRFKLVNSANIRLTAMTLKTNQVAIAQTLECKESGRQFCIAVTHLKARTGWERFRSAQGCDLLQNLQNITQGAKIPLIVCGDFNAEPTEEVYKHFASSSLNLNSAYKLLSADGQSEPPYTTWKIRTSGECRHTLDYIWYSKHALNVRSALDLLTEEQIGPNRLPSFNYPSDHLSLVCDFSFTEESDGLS
# T3: full-length (FL) human NOCT (Homo sapiens, UniProt Q9UK39)
# T3 construct: E. coli, pGEX-6P, GST tag removed with Prescission protease
# T3 sequence (Q9UK39 1-431): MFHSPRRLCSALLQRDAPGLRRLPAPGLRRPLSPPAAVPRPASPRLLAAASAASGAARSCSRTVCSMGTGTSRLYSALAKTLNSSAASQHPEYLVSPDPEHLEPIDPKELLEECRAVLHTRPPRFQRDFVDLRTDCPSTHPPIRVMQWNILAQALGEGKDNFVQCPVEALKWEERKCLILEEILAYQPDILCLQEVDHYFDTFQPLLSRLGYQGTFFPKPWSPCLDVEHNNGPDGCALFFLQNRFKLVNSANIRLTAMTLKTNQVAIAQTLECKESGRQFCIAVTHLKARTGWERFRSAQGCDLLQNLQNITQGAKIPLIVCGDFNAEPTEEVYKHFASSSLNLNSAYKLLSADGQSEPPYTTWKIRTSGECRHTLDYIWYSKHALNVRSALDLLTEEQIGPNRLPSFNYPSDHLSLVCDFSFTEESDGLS
# Tests used:
# [1] = target: T1, Curled (NOCT ortholog), full-length, Curled 1-419; experiment: ion-exchange chromatography, UV […] nm; type: biochemical; settings: 22 °C, 20 mM Tris-HCl pH 8.0, 70 mM NaCl, 2 mM MgCl2
# [2] = target: T2, NOCT (122-431), catalytic domain of human NOCT; experiment: LC-MS/MS product detection; type: biochemical; settings: 10 μM enzyme, 1 h at r.t.
# [3] = target: T3, full-length (FL) human NOCT; experiment: ion-exchange chromatography, UV […] nm; type: biochemical; settings: 22 °C, 20 mM Tris-HCl pH 8.0, 70 mM NaCl, 2 mM MgCl2; 1 mM substrate, 0.5 μM enzyme
# [4] = substrate: NC(=O)C1=CN([C@@H]2O[C@H](COP(=O)(O)OP(=O)(O)OC[C@H]3O[C@@H](n4cnc5c(N)ncnc54)[C@H](OP(=O)(O)O)[C@@H]3O)[C@@H](O)[C@H]2O)C=CC1; experiment: purified protein; settings: 22 °C, 20 mM Tris-HCl pH 8.0, 70 mM NaCl
molecule,measurement,setting,value
NC(=O)C1=CN([C@@H]2O[C@H](COP(=O)(O)OP(=O)(O)OC[C@H]3O[C@@H](n4cnc5c(N)ncnc54)[C@H](OP(=O)(O)O)[C@@H]3O)[C@@H](O)[C@H]2O)C=CC1 [NADPH],"ion-exchange chromatography, UV 260 nm","[1]; 1 mM substrate, 500 nM enzyme","In contrast, Curled readily cleaved NADPH (Fig. 5c; Supplementary Fig. 5b)"
NC(=O)c1ccc[n+]([C@@H]2O[C@H](COP(=O)(O)OP(=O)(O)OC[C@H]3O[C@@H](n4cnc5c(N)ncnc54)[C@H](OP(=O)(O)O)[C@@H]3O)[C@@H](O)[C@H]2O)c1 [NADP^+],LC-MS/MS product detection,[2],converted NADPH into NADH and NADP^+ into NAD^+ (Fig. 1c)
same,"ion-exchange chromatography, UV 260 nm",[1],"Curled cleaved both NADP^+ and NADPH, exhibiting a preference for NADPH"
same,"ion-exchange chromatography, UV 260 nm",[3],"conversion of both NADP^+ and NADPH into NAD^+ and NADH, respectively by full-length (FL) NOCT"
full-length (FL) human NOCT (Homo sapiens) (protein) MFHSPRRLCSALLQRDAPGLRRLPAPGLRRPLSPPAAVPRPASPRLLAAASAASGAARSCSRTVCSMGTGTSRLYSALAKTLNSSAASQHPEYLVSPDPEHLEPIDPKELLEECRAVLHTRPPRFQRDFVDLRTDCPSTHPPIRVMQWNILAQALGEGKDNFVQCPVEALKWEERKCLILEEILAYQPDILCLQEVDHYFDTFQPLLSRLGYQGTFFPKPWSPCLDVEHNNGPDGCALFFLQNRFKLVNSANIRLTAMTLKTNQVAIAQTLECKESGRQFCIAVTHLKARTGWERFRSAQGCDLLQNLQNITQGAKIPLIVCGDFNAEPTEEVYKHFASSSLNLNSAYKLLSADGQSEPPYTTWKIRTSGECRHTLDYIWYSKHALNVRSALDLLTEEQIGPNRLPSFNYPSDHLSLVCDFSFTEESDGLS,kcat,"[4]; 2 mM MgCl2, printed range may span catalytic domain and full-length protein",34 s⁻¹
"NOCT (122-431), catalytic domain of human NOCT (Homo sapiens) (protein) PPRFQRDFVDLRTDCPSTHPPIRVMQWNILAQALGEGKDNFVQCPVEALKWEERKCLILEEILAYQPDILCLQEVDHYFDTFQPLLSRLGYQGTFFPKPWSPCLDVEHNNGPDGCALFFLQNRFKLVNSANIRLTAMTLKTNQVAIAQTLECKESGRQFCIAVTHLKARTGWERFRSAQGCDLLQNLQNITQGAKIPLIVCGDFNAEPTEEVYKHFASSSLNLNSAYKLLSADGQSEPPYTTWKIRTSGECRHTLDYIWYSKHALNVRSALDLLTEEQIGPNRLPSFNYPSDHLSLVCDFSFTEESDGLS",kcat,"[4]; 2 mM MgCl2, 4.8 μM enzyme, printed range may span catalytic domain and full-length protein",3.6 s⁻¹

# From paper PMC6542800 (Nature Communications, 2019)
